Laboratory results from patent US20210246128A1, “BICYCLE TOPOISOMERASE I INHIBITING COMPOUNDS, PROCESS FOR PREPARATION AND USE THEREOF” (Council of Scientific & Industrial Research, priority 2018, published 2021).
Converted amounts (≈) assume the structure as drawn. Read-outs that look alike come from different tables or passages of the source.

What was measured:
calf thymus (CT) DNA = assay: Ethidium bromide (EtBr) displacement assay; type: binding; details: 1 μM EtBr, 5 nM CT DNA, 0-200 μM compound
[1] = target: T1, recombinant human TopI (HTopI) (Homo sapiens, UniProt P11387); assay: Gel based plasmid DNA relaxation assay with recombinant TopI (in vitro); type: biochemical; details: recombinant human TopI; for IC50: plasmid DNA relaxation
T1 sequence (P11387 1-765): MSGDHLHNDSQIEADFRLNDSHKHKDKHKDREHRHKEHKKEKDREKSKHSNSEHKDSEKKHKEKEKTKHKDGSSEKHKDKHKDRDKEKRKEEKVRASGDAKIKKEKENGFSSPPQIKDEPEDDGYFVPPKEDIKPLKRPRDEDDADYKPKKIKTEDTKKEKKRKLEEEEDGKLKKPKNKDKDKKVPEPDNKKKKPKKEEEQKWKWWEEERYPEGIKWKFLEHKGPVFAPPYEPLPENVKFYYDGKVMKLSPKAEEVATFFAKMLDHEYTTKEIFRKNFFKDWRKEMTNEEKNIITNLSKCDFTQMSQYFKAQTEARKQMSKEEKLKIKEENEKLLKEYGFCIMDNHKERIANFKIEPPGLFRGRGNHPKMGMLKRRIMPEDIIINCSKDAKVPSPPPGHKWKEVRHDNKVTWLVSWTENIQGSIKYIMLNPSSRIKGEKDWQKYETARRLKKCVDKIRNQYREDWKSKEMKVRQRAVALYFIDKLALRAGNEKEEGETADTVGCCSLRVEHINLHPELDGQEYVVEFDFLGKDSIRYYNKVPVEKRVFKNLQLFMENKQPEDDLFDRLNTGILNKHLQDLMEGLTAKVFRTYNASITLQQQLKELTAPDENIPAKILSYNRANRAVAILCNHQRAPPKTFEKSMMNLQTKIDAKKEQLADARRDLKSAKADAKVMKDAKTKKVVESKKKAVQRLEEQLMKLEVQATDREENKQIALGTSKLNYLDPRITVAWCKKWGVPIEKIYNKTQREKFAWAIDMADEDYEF
Experimental: (§1) Human ToPI Inhibition in Plasmid DNA Relaxation Assays with Recombinant TopI (In Vitro) or MCF7 Cell Lysates (Ex Vivo)
(§2) Relaxation of supercoiled pBSSK(^+) DNA with recombinant human TopI (HTopI) at a molar ratio of 3:1 at 37° C. for 30 minutes was performed

[2] = target: T2, endogenous TopI from the whole cell extracts of human breast adenocarcinoma (MCF7) cell (Homo sapiens, UniProt P11387); assay: Plasmid DNA relaxation assay with MCF7 cell lysates (ex vivo); type: biochemical; details: MCF7 cell lysates as source of TopI
T2 construct: TopI enzyme in the extract is conserved in its native structure among a plethora of other cellular proteins; endogenous in cells; host or cells: MCF7 whole cell extract
T2 sequence (P11387 1-765): T1 sequence (P11387 1-765)
Experimental: as §1, §2
cellular extracts were utilized as a source of TopI (ex vivo) in plasmid DNA relaxation assays. TopI enzyme in the extract is conserved in its native structure among a plethora of other cellular proteins.

[3] = Solubility assay (pH 7.4 pION buffer, UV); type: physicochemical; details: pH 7.4 pION buffer, aqueous buffer, kinetic from dmso stock; pH 7.4 buffer, 18 hours incubation; read-out: Avg. Solubility (μg/mL) at pH 7.4
Experimental: 5 μL of 20 mM DMSO stock from the stock plate was added to the reaction deep well plate containing 495 μL of pH 7.4 pION buffer (including DMSO control) respectively and the samples were mixed and incubated for 18 hours. The plate was sealed well during the incubation process. The DMSO content in the sample was <1.0%. The concentration in deep well plates was 200 μM. 4 μL of 20 mM stock (including DMSO control) was added to 996 μL of acetonitrile to prepare the working stock plate. 75 μL of working stock was added to 75 μL of blank buffer and read on spectrophotometer as reference plate at 240 nm. At the end of the incubation period, 100 μL of sample from storage plate was vacuum filtered using a filter plate. This step wets the filters and the filtrate was discarded. Another 200 μL of the sample from deep well plate was vacuum filtered in to a new filter collection plate. 75 μL of the filtrate from the filter collection plate was transferred to a UV sample plate. 75 μL of acetonitrile was added to this UV plate. The solution was mixed and the spectrum was read using the UV spectrophotometer at 240 nm. Plates were read on spectramax using SoftMax Pro software version 5.3.

[4] = Caco-2 permeability (21 day culture of Caco-2 cell monolayer); type: in vitro ADME; details: human; for efflux ratio at 120 min, 10 μM: Caco-2, pH 7.4; for recovery at 120 min, 10 μM: Caco-2, pH 7.4, Caco-2; for Papp A→B at 120 min, 10 μM / Papp B→A at 120 min, 10 μM: pH 7.4, Caco-2, 10 μM; for Papp A→B at 120 min, 10 μM: read-out: Papp Apical to Basal; for Papp B→A at 120 min, 10 μM: read-out: Papp Basal to Apical
Experimental: 5 mL of 100 mM sodium pyruvate, 5 mL of 10× non-essential amino acids, 5 mL of penstrep were added to 100 mL of heat inactivated foetal bovine serum to 385 mL of DMEM aseptically and mixed thoroughly. One vial of Hank's balanced salt (Sigma-H1387) was dissolved in 900 mL of milli Q water; adjusted the pH to 7.4 and made up the volume to 1000 mL with the same. The solution was filter sterilized and stored at 4° C. Stock solution of test compound (10 mM) was prepared in DMSO. 10 mM stock was diluted with HBSS Buffer to a final concentration of 10 μM.
250 μL of DMEM was added to the basal compartment of 96 well multi-screen Caco-2 plate and seeded 12000 cells/well (0.16×10^6 cells/ml) in all the apical wells required and one well with only media as blank without cells, placed the Caco-2 plate in CO2 incubator at 37° C. for proliferation of cells.
On the day of assay, medium was removed and washed twice with HBSS Buffer and incubated with HBSS buffer for 30 min in an incubator and wells with TEER values >230 ohm·cm^2 were selected for the incubation. 75 μL of test compound was added to apical wells and 250 μL of HBSS buffer with 2% BSA was added to basal wells. 25 μL of basal samples was collected at 120 min and processed as stated below.
250 μL of test compound was added to basal wells and 75 μL of HBSS buffer with 2% BSA was added to apical wells. 25 μL of apical samples was collected at 120 min and processed as stated below.
Single point calibration curve in HBSS buffer with 2% BSA was used. Donor samples were diluted 1:1 with HBSS containing 2% BSA and receiver samples were diluted with 1.1 HBSS buffer and precipitated with 200 μL of acetonitrile containing internal standard and vortexed for 5 min @ 1000 rpm, centrifuged at 4000 rpm for 10 min. Finally 100 μL of supernatant was diluted with 200 μL of water and submitted for LC-MS/MS analysis.

Plasma stability assay = type: in vitro ADME; details: pH 7.4, 37° C., 1 μM
Experimental: The stock solution of 10 mM of test compound in DMSO was prepared and stored at 4° C. 25 μM stock of test compound was prepared in acetonitrile: water by diluting from 10 mM stock (i.e. 2.5 μL of 10 mM stock solution was added to 997.5 μL of acetonitrile: water (50:50). The frozen plasma was thawed at room temperature and centrifuged at 1400×RCF (relative centrifugal force) 4° C., for 15 minutes. Approximately 90% of the clear supernatant fraction was transferred to a separate tube and was used for the assay.
For 0 min samples, plasma was heat inactivated at 56° C. for 45 min. To 72 μL of heat inactivated plasma, 3 μL of 25 μM test compound was added. A 25 μL aliquot of the mixture was taken and crashed with 200 μL of acetonitrile containing internal standard and further processed along with other time points. For other time point samples, final working stock of 1 μM was prepared by diluting in plasma (i.e. 8 μL of 25 μM acetonitrile:water stock was added to 192 μL of plasma). 200 μL of plasma containing the test compound was incubated for 2 hrs at 37° C. in shaker water bath with gentle shaking. 25 μL aliquot of sample at 0, 15, 30, 60 and 120 min was precipitated immediately with 200 μL of acetonitrile containing internal standard and centrifuged at 4000×RCF, 4° C. for 20 minutes. 150 μL of supernatant was diluted with 150 μL of water and analyzed on LC-MS/MS.

[5] = Lipophilicity assay (octanol/buffer Log D); details: n-octanol/sodium phosphate buffer, pH 7.4
Experimental: 1.56 g NaH2PO4.2H2O was dissolved in 0.5 L water in a 1 L beaker. After adjusting pH to 7.4 using NaOH solution, the volume was made up to 1 L. Equal volumes of sodium phosphate buffer (10 mM, pH 7.4) and n-octanol were added to a separation funnel and mixed thoroughly by shaking and inverting the funnel several times. The two layers were allowed to separate for 2 days and then dispensed in two separate glass bottles. 10 mM stock solution was prepared in 100% DMSO and stored at 4° C. 500 μL of organic phase (1-octanol) was added to each well of a 2 mL deep well plate, followed by 500 μL of buffer and 15 μL of test substance was added. The plate was vortexed for 1 hr on a plate shaker at 1200 rpm. After incubation, the samples were allowed to equilibrate for 20 min and then centrifuged at 4000 rpm for 30 min for complete phase separation and analysed by LC-UV.
Log D=Log(area of octanol/area of buffer)
Mean, SD and % CV for each set of triplicates were calculated

COc1cc([C@@H]2c3cc4c(cc3[C@@H](O[C@@H]3O[C@@H]5CO[C@@H](C)O[C@H]5[C@H](O)[C@H]3O)[C@H]3COC(=O)[C@H]23)OCO4)cc(OC)c1O [etoposide]
displacement of bound EtBr (DNA intercalation) (calf thymus (CT) DNA): unable to displace EtBr

COc1cccc(-c2ccc3ncc(-c4nnco4)c(NCCCn4ccnc4)c3c2)c1 [Compound 82, N-(3-(1H-Imidazol-1-yl)propyl)-6-(3-methoxyphenyl)-3-(1,3,4-oxadiazol-2-yl)quinolin-4-amine]
IC50 [1]: 1050 nM
IC50 [2]: 4110 nM
melting point: 96 °C

COc1ccc(-c2ccc3ncc(-c4nnco4)c(NCCN4CCOCC4)c3c2)cc1OC [Compound 8, 6-(3,4-dimethoxyphenyl)-N-(2-morpholinoethyl)-3-(1,3,4-oxadiazol-2-yl)quinolin-4-amine]
melting point: 116 °C

N#Cc1ccc(-c2ccc3ncc(-c4nnco4)c(NCCN4CCOCC4)c3c2)cc1 [Compound 11, 4-(4-(2-morpholinoethylamino)-3-(1,3,4-oxadiazol-2-yl)quinolin-6-yl)benzonitrile]
melting point: 190 °C

COc1cc(NS(C)(=O)=O)ccc1Nc1c2ccccc2nc2ccccc12 [m-AMSA]
displacement of bound EtBr (DNA intercalation) (calf thymus (CT) DNA): capability to dislodge the bound fluorophore (EtBr) at 50 μM concentration

c1cncc(-c2ccc3ncc(-c4nnco4)c(NCCCn4ccnc4)c3c2)c1 [Compound 30, N-(3-(1H-imidazol-1-yl)propyl)-3-(1,3,4-oxadiazol-2-yl)-6-(pyridin-3-yl)quinolin-4-amine]
IC50 [1]: 397 nM
solubility at 18 h [3]: 44 µg/mL (≈ 111 µM)
IC50 [2]: 1250 nM
efflux ratio at 120 min, 10 μM [4]: 40
recovery at 120 min, 10 μM ([4]; read-out: A to B % Recovery): 84.8%
recovery at 120 min, 10 μM ([4]; read-out: B to A % Recovery): 74.2%
Papp A→B at 120 min, 10 μM [4]: 0.95 ×10⁻⁶ cm/s
Papp B→A at 120 min, 10 μM [4]: 38.3 ×10⁻⁶ cm/s
Mean % remaining at 2 hrs in human Plasma (Plasma stability assay): 14.62%
logD [5]: 3.54

COc1ccc(-c2ccc3ncc(-c4nnco4)c(NCCN4CCOCC4)c3c2)cc1 [Compound 9, 6-(4-methoxyphenyl)-N-(2-morpholinoethyl)-3-(1,3,4-oxadiazol-2-yl)quinolin-4-amine]
inhibition at 10 µM ([1]; at 10 μM, read-out: In vitro inhibition at 10 μM): 45%
melting point: 156 °C

Cc1ccc(-c2ccc3ncc(-c4nnco4)c(NCCN4CCOCC4)c3c2)cc1[N+](=O)[O-] [Compound 10, 6-(4-methyl-3-nitrophenyl)-N-(2-morpholinoethyl)-3-(1,3,4-oxadiazol-2-yl)quinolin-4-amine]
melting point: 222 °C

COc1ccc(-c2ccc3ncc(-c4nnco4)c(NCCCn4ccnc4)c3c2)cn1 [Compound 33, N-(3-(1H-imidazol-1-yl)propyl)-6-(6-methoxypyridin-3-yl)-3-(1,3,4-oxadiazol-2-yl)quinolin-4-amine]
IC50 [1]: 17 nM
solubility at 18 h [3]: 27.9 µg/mL (≈ 65.4 µM)
IC50 [2]: 625 nM
efflux ratio at 120 min, 10 μM [4]: 4.01
recovery at 120 min, 10 μM ([4]; read-out: A to B % Recovery): 83.9%
recovery at 120 min, 10 μM ([4]; read-out: B to A % Recovery): 92%
Papp A→B at 120 min, 10 μM [4]: 7.89 ×10⁻⁶ cm/s
Papp B→A at 120 min, 10 μM [4]: 31.5 ×10⁻⁶ cm/s
Mean % remaining at 2 hrs in human Plasma (Plasma stability assay): 102.28%
logD [5]: 2.79
